According to patent publication US20240208972A1, “LRRK2 INHIBITORS AND USES THEREOF” (NEURON23, INC., priority 2022, published 2024):

Tests used:
[1] = target: T1, wt human LRRK2, catalytic site (Homo sapiens, UniProt Q5S007); assay: TR-FRET LanthaScreen Tb Kinase Activity Assay, LRRK2 kinase inhibition; assay type: biochemical; conditions: 2 nM wt human LRRK2, 400 nM peptide, 38 μM ATP
T1 construct: wt human LRRK2, catalytic site, catalytic site (ThermoFisher/USA); purchased ThermoFisher
Outline: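 TR-FRET LanthaScreen format: 2 nM wt human LRRK2 catalytic domain with 400 nM fluorescein-ERM (LRRKtide) and 38 μM ATP in Kinase Buffer A, after 15 min compound preincubation. Reaction 120 min at RT, then EDTA plus Tb-anti-pLRRKtide antibody for 60 min; emission ratios analysed per kit protocol.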

[2] = Human liver microsomal clearance (hLM Cl); assay type: in vitro ADME; conditions: cells marked *
Caco-2 cells = assay: Caco-2 bidirectional permeability; assay type: in vitro ADME; conditions: for Caco-2 A2B (10^−6 cm/s): A to B; for Caco-2 A2B (10^−6 cm/s) / Caco-2 B2A (10^−6 cm/s): HBSS pH 7.4, 2 hours; for Caco-2 B2A (10^−6 cm/s): B to A; for Caco-2 ER: Efflux Ratio=Papp (BA)/Papp (AB)
Outline: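 Caco-2 monolayers grown 21–28 days on PET inserts were run in duplicate in HBSS with 10 mM HEPES, pH 7.4. Compound was tested in both directions at […] for 2 h at 37 °C and quantified by LC-MS/MS. Papp, % recovery and efflux ratio (B-A/A-B) were calculated, with lucifer yellow checking monolayer integrity.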

[3] = Brain penetration (Kp,uu) in CD-1 mice, with plasma and brain tissue binding by equilibrium dialysis; assay type: in vivo; conditions: mouse, brain and plasma (unbound), male CD-1 mice, single IV bolus 1 mg/kg
Experimental: The compounds disclosed herein were tested on CD-1 mice for brain penetration (Kp, uu) according to the following procedures.
Nine male CD-1 mice were administered TEST COMPOUND by single intravenous bolus administration at 1 mg/kg. The vehicle used for IV study was 5% DMSO, 5% solutol, 20% PEG300 and 70% water. The detailed dosing and sampling regimens are described in the following tables.
1.0 mg of test compound was accurately weighed into a glass vial, and slowly added with 104 μL of DMSO and vortexed for 1 min. Then 104 μL of solutol was added and vortexed for 1 min. Then 415 μL of PEG300 was added and vortexed for 1 min. Then 1000 μL of water was added and vortexed for 1 min. Finally, 451 μL of water was added and vortexed for 1 min to get a clear solution.
The body weights were in the range from 28.81 to 31.25 g for males on the first dosing day. All animals received a single intravenous bolus administration of TEST COMPOUND from the tail vein.
Each blood collection (about 0.06 mL per time point) was performed from saphenous vein of each animal into pre-chilled commercial K2-EDTA tubes as anti-coagulant and placed on wet ice until centrifugation.
Plasma samples were then prepared by centrifuging the blood samples at approximately 4° C., 3200×g for 10 minutes. All plasma samples were then quickly frozen over dry ice and kept at −60° C. or lower until LC-MS/MS analysis.
Brain tissue was homogenized using homogenizing buffer (15 mM PBS (pH7.4): MeOH=2:1) at the ratio of 1:9 (1 g tissue with 9 mL buffer, the dilution ratio is 10). The tissue homogenate was kept at −60° C. or lower until LC-MS/MS analysis.
The concentrations of TEST COMPOUND in plasma and brain were determined by using an LC-MS/MS method.
The plasma and brain concentration of TEST COMPOUND in study animals was subjected to a non-compartmental pharmacokinetic analysis by using the Phoenix WinNonlin software program (version 6.3 or above, Pharsight). The linear/log trapezoidal rule was applied in obtaining the PK parameters.
Individual plasma and brain concentration values that were below the lower limit of quantitation (LLOQ) were excluded from the PK parameter calculation. The nominal dose levels and nominal sampling times were used in the calculation of all pharmacokinetic parameters.
Mouse Kp, uu=(% free in mouse brain*concentration in mouse brain)/(% free in mouse plasma*concentration in mouse plasma)
The dialysis apparatus was assembled according to the manufacturer's instruction. Each Cell was filled with 120 μL of spiked plasma sample and dialyzed against equal volume of dialysis buffer (PBS). The assay was performed in duplicate. The dialysis plates were sealed and incubated in an incubator at 37° C. with 5% CO2 and rotated at 100 rpm for 6 hours. At the end of incubation, the seals were removed and 50 μL of samples from both buffer and plasma chambers were transferred to a 96-well plate.
All calculations were carried out using Microsoft Excel. The concentrations of test compound and control compound in the buffer and plasma chambers were determined from peak area ratios (PAR) of analyte to internal standard. Protein binding (% unbound and % bound) and recovery (% recovery) of test and control compounds was calculated as follows:
• 1. Thawing of the frozen brain (stored at −80° C.) • Frozen brain tissue was thawed at room temperature in a bath. Only brain tissue was used that was thawed no more than once. • 2. Preparation of brain tissue homogenate • Brain tissue homogenate was prepared by diluting one quantity (g) of the whole brain tissue with three volumes (mL) of buffer (PBS, pH 7.4) and homogenizing the mixture using a tissue homogenizer. Brain tissue homogenate was frozen at −80° C. for later use/comparison. • 3. Preparation of working solutions • The working solutions of test compound and the control compound propranolol were prepared in dimethyl sulfoxide (DMSO) at the concentration of 200 μM. […]

T1 sequence (Q5S007 1879-2138 limits assumed): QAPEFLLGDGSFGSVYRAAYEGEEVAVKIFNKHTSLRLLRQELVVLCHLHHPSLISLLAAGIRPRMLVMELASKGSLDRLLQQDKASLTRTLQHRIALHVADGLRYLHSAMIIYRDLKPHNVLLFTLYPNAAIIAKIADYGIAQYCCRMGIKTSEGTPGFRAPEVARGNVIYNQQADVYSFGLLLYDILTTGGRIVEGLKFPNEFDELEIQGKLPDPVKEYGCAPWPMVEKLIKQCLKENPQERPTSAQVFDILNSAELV

| IC50 [1] | hLM Cl (mL/min/kg) [2] | Caco-2 A2B (10^−6 cm/s) (Caco-2 cells) | Caco-2 B2A (10^−6 cm/s) (Caco-2 cells) | Caco-2 ER (Caco-2 cells) | Kp uu [3] | SMILES |
| --- | --- | --- | --- | --- | --- | --- |
| 2 to 100 nM | L* (L (Low C1)”: Hep Cl<6.3 mL/min/kg) | H (H (High permeability)”: A2B (B2A)>5) | H (H (High permeability)”: A2B (B2A)>5) | N (N (Non-substrate)”: ER<2.5) | 0.2 to 0.4 | [2H]C([2H])([2H])c1n[nH]c2c1N=C(c1c(F)cccc1F)Nc1ccc(N3CCO[C@H](C)C3)cc1-2 [Example 11, (2R)-4-[5-(2,6-difluorophenyl)-3-(trideuteriomethyl)-1,6-dihydropyrazolo[4,3-d][1,3]benzodiazepin-9-yl]-2-methyl-morpholine] |
| < 2 nM | L* (L (Low C1)”: Hep Cl<6.3 mL/min/kg) | H (H (High permeability)”: A2B (B2A)>5) | H (H (High permeability)”: A2B (B2A)>5) | N (N (Non-substrate)”: ER<2.5) | 0.2 to 0.4 | Cc1n[nH]c2c1N=C(c1c(F)cccc1F)Nc1ccc(N3CCN(C)C(C(F)(F)F)C3)cc1-2 (stereo not drawn) [Example 6, 5-(2,6-difluorophenyl)-3-methyl-9-[4-methyl-3-(trifluoromethyl)piperazin-1-yl]-1,6-dihydropyrazolo[4,3-d][1,3]benzodiazepine] |

Continued, molecule first:

| SMILES | IC50 [1] | hLM Cl (mL/min/kg) [2] | Caco-2 A2B (10^−6 cm/s) (Caco-2 cells) | Caco-2 B2A (10^−6 cm/s) (Caco-2 cells) | Caco-2 ER (Caco-2 cells) | Kp uu [3] |
| --- | --- | --- | --- | --- | --- | --- |
| Cc1n[nH]c2c1N=C(c1c(F)cccc1F)Nc1c-2cc(N2CCC[C@@]3(CCOC3)C2)nc1C (single isomer, unassigned) [Example 49] | < 2 nM | I* (I (Intermediate C1)”: 6.3 mL/min/kg≤Hep Cl≤14.7 mL/min/kg) | H (H (High permeability)”: A2B (B2A)>5) | H (H (High permeability)”: A2B (B2A)>5) | N (N (Non-substrate)”: ER<2.5) | 0.2 to 0.4 |
| Cc1n[nH]c2c1N=C(c1c(F)cccc1F)Nc1c-2cc(N2CCN(CCF)[C@@H](C)C2)nc1C [Example 21, (S)-5-(2,6-difluorophenyl)-9-(4-(2-fluoroethyl)-3-methylpiperazin-1-yl)-3,7-dimethyl-1,6-dihydropyrazolo[4,3-d]pyrido[4,3-f][1,3]diazepine] | < 2 nM | L* (L (Low C1)”: Hep Cl<6.3 mL/min/kg) | H (H (High permeability)”: A2B (B2A)>5) | H (H (High permeability)”: A2B (B2A)>5) | N (N (Non-substrate)”: ER<2.5) | 0.2 to 0.4 |
| Cc1n[nH]c2c1N=C(c1c(F)cccc1F)Nc1c-2cc(N2CCN(C)[C@@H](C(F)(F)F)C2)nc1C (single isomer, unassigned) [Example 37] | < 2 nM | I* (I (Intermediate C1)”: 6.3 mL/min/kg≤Hep Cl≤14.7 mL/min/kg) | H (H (High permeability)”: A2B (B2A)>5) | H (H (High permeability)”: A2B (B2A)>5) | N (N (Non-substrate)”: ER<2.5) | 0.2 to 0.4 |
